Assay results as given in patent US20260285853A1, “COMPOUNDS AND METHODS FOR MODULATING SPLICING” (REMIX THERAPEUTICS INC., priority 2023, published 2026).

What was measured:
Type in all cases: cell-based
[1] = system: HTT mRNA; assay: Gene panel canonical junction qPCR assay, decrease in CJ mRNA, Table 3; conditions: decrease in CJ mRNA levels, canonical junction qPCR, gene panel
Summary of the method: (§1)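 IC50 denotes the concentration giving 50% decrease in canonical-junction mRNA, fitted by 4-parameter logistic to percentage response derived from ΔΔCt versus housekeeping gene and DMSO control. Cells (A673 or K562) exposed 24 h to 11-point 3-fold serial dilutions from 10 uM top, DMSO ≤0.25%; junction-spanning primer/probe qPCR.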

[2] = system: MYB mRNA; assay: as above; conditions: decrease in CJ mRNA levels, canonical junction qPCR, gene panel
Summary of the method: as §1

[3] = system: HTT mRNA; assay: Splicing RT-qPCR assay (THP), Table 2A; conditions: Table 2A, THP; for AC50: HTT alternative junction (AJ) mRNA, read-out: HTT AJ (AC50, increase in alternative junction mRNA); for IC50: HTT canonical junction (CJ) mRNA, read-out: HTT CJ (IC50, decrease in canonical junction mRNA)
[4] = system: SH-SY5Y (human neuroblastoma) cells; assay: Cell viability, Cell Titer Glo 2.0 assay; conditions: read-out: Viability SHSY5Y.3 GI50
Summary of the method: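 Viability was read by CellTiter-Glo 2.0 luminescence after a 72-hour compound exposure at 37° C. under 5% CO2. Cells were in IMDM plus 10% FBS containing 0.1% DMSO, and medium-only wells gave the blank.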

[5] = system: MYB mRNA; assay: Splicing RT-qPCR assay (THP), Table 2A; conditions: Table 2A, THP; for AC50: MYB alternative junction (AJ) mRNA, read-out: MYB AJ (AC50, increase in alternative junction mRNA); for IC50: MYB canonical junction (CJ) mRNA, read-out: MYB CJ (IC50, decrease in canonical junction mRNA)

COc1nc2c(C(=O)Nc3cc(F)c4nn(C)cc4c3)ccc(N3CCN[C@@H](CO)C3)c2s1 [Compound 743, (R)—N-(7-fluoro-2-methyl-2H-indazol-5-yl)-7-(3-(hydroxymethyl)piperazin-1-yl)-2-methoxybenzo[d]thiazole-4-carboxamide 2,2,2-trifluoroacetate]
IC50 [1]: < 100 nM
IC50 [2]: < 100 nM
AC50 [3]: < 100 nM
IC50 [3]: < 100 nM
GI50 [4]: < 100 nM
AC50 [5]: < 100 nM
IC50 [5]: < 100 nM

COc1nc2c(C(=O)Nc3cc(F)c4nn(C)cc4c3)ccc(N3C[C@@H](C)N(C)[C@@H](C)C3)c2s1 [Compound 744, N-(7-fluoro-2-methyl-indazol-5-yl)-2-methoxy-7-[(3R,5S)-3,4,5-trimethylpiperazin-1-yl]-1,3-benzothiazole-4-carboxamide]
IC50 [1]: 1000 to 10000 nM
IC50 [2]: < 100 nM
AC50 [3]: 100 to 1000 nM
IC50 [3]: 1000 to 10000 nM
GI50 [4]: 100 to 1000 nM
AC50 [5]: < 100 nM
IC50 [5]: < 100 nM

COc1nc2c(C(=O)Nc3cc(F)c4nn(C)cc4c3)ccc(N3CCN4CCC[C@H]4C3)c2s1 [Compound 745, 7-[(8aS)-3,4,6,7,8,8a-hexahydro-1H-pyrrolo[1,2-a]pyrazin-2-yl]-N-(7-fluoro-2-methyl-indazol-5-yl)-2-methoxy-1,3-benzothiazole-4-carboxamide]
IC50 [1]: 100 to 1000 nM
IC50 [2]: < 100 nM
AC50 [3]: 100 to 1000 nM
IC50 [3]: 100 to 1000 nM
GI50 [4]: 100 to 1000 nM
AC50 [5]: < 100 nM
IC50 [5]: < 100 nM

COc1nc2c(C(=O)Nc3cc(F)c4nn(C)cc4c3)ccc(N3CCN4CCCC[C@H]4C3)c2s1 [Compound 746]
IC50 [1]: 100 to 1000 nM
IC50 [2]: 100 to 1000 nM
AC50 [3]: 100 to 1000 nM
IC50 [3]: 100 to 1000 nM
GI50 [4]: 100 to 1000 nM
AC50 [5]: < 100 nM
IC50 [5]: 100 to 1000 nM

CN[C@@H]1CCN(c2ccc(C(=O)Nc3cc(F)c4nn(C)cc4c3)c3nc(OC)sc23)C1 [Compound 747, N-(7-fluoro-2-methyl-indazol-5-yl)-2-methoxy-7-[(3R)-3-(methylamino)pyrrolidin-1-yl]-1,3-benzothiazole-4-carboxamide]
IC50 [1]: 100 to 1000 nM
IC50 [2]: < 100 nM
AC50 [3]: 100 to 1000 nM
IC50 [3]: 100 to 1000 nM
GI50 [4]: 100 to 1000 nM
AC50 [5]: < 100 nM
IC50 [5]: < 100 nM

CN[C@H]1CCN(c2ccc(C(=O)Nc3cc(F)c4nn(C)cc4c3)c3nc(OC)sc23)C1 [Compound 748, N-(7-fluoro-2-methyl-indazol-5-yl)-2-methoxy-7-[(3S)-3-(methylamino)pyrrolidin-1-yl]-1,3-benzothiazole-4-carboxamide]
IC50 [1]: 1000 to 10000 nM
IC50 [2]: < 100 nM
AC50 [3]: 100 to 1000 nM
IC50 [3]: 1000 to 10000 nM
GI50 [4]: 100 to 1000 nM
AC50 [5]: < 100 nM
IC50 [5]: < 100 nM

CNC1CN(c2ccc(C(=O)Nc3cc(F)c4nn(C)cc4c3)c3nc(OC)sc23)C1 [Compound 749, N-(7-fluoro-2-methyl-indazol-5-yl)-2-methoxy-7-[3-(methylamino)azetidin-1-yl]-1,3-benzothiazole-4-carboxamide]
IC50 [1]: 100 to 1000 nM
IC50 [2]: < 100 nM
AC50 [3]: 100 to 1000 nM
IC50 [3]: 100 to 1000 nM
GI50 [4]: 100 to 1000 nM
AC50 [5]: 100 to 1000 nM
IC50 [5]: < 100 nM

CNCC1CN(c2ccc(C(=O)Nc3cc(F)c4nn(C)cc4c3)c3nc(OC)sc23)C1 [Compound 750]
IC50 [1]: < 100 nM
IC50 [2]: < 100 nM
AC50 [3]: 100 to 1000 nM
IC50 [3]: < 100 nM
GI50 [4]: 100 to 1000 nM
AC50 [5]: < 100 nM
IC50 [5]: < 100 nM

Cc1cn2cc(NC(=O)c3ccc(N4CCC(NC5CC5)CC4)c4cn(C)nc34)nc2c(CNS(=O)(=O)CCO)n1 [Compound 752, 4-[4-(cyclopropylamino)-1-piperidyl]-N-[8-[(2-hydroxyethylsulfonylamino)methyl]-6-methyl-imidazo[1,2-a]pyrazin-2-yl]-2-methyl-indazole-7-carboxamide]
IC50 [1]: > 10000 nM
IC50 [2]: > 10000 nM
AC50 [3]: > 10000 nM
IC50 [3]: > 10000 nM
GI50 [4]: > 10000 nM
AC50 [5]: > 10000 nM
IC50 [5]: > 10000 nM

Cc1cn2cc(NC(=O)c3ccc(N4CCC(NC5CC5)CC4)c4cn(C)nc34)nc2c(CCN)n1 [Compound 753, N-[8-(2-aminoethyl)-6-methyl-imidazo[1,2-a]pyrazin-2-yl]-4-[4-(cyclopropylamino)-1-piperidyl]-2-methyl-indazole-7-carboxamide]
IC50 [1]: > 10000 nM
IC50 [2]: > 10000 nM
AC50 [3]: > 10000 nM
IC50 [3]: > 10000 nM
GI50 [4]: > 10000 nM
AC50 [5]: > 10000 nM
IC50 [5]: > 10000 nM
